Results reported in ChEMBL document CHEMBL1201862, “PubChem BioAssay data set” (2004).
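Exposure lasted 48 hours, with cells grown in 96-well plates and compounds tested at five concentrations. At the GI50, growth is halved.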 Activity calls are given as the source filed them. Cut-off read from the data, not from the text of the source: active = GI50 up to about 1.1 µM and inactive = higher.

Columns and labels:
Assay in all cases: growth of human tumour cells (NCI), 48 h
A498 = test system: A498
A549 = test system: A549
CAKI-1 = test system: CAKI-1
CCRF-CEM = test system: CCRF-CEM
COLO 205 = test system: COLO 205
DLD-1 = test system: DLD-1
DMS-273 = test system: DMS-273
EKVX = test system: EKVX
HCC 2998 = test system: HCC 2998
HCT-116 = test system: HCT-116
HCT-15 = test system: HCT-15
HL-60 = test system: HL-60
HOP-18 = test system: HOP-18
HOP-62 = test system: HOP-62
HOP-92 = test system: HOP-92
HT-29 = test system: HT-29
IGROV-1 = test system: IGROV-1
K562 = test system: K562
KM-20L2 = test system: KM-20L2
KM12 = test system: KM12
LOX IMVI = test system: LOX IMVI
M19-MEL = test system: M19-MEL
MCF7 = test system: MCF7
MOLT-4 = test system: MOLT-4
Malme-3M = test system: Malme-3M
NCI-H226 = test system: NCI-H226
NCI-H23 = test system: NCI-H23
NCI-H460 = test system: NCI-H460
NCI-H522 = test system: NCI-H522
NCI/ADR-RES = test system: NCI/ADR-RES
OVCAR-3 = test system: OVCAR-3
OVCAR-4 = test system: OVCAR-4
OVCAR-5 = test system: OVCAR-5
OVCAR-8 = test system: OVCAR-8
RPMI-8226 = test system: RPMI-8226
RXF 393 = test system: RXF 393
SF-268 = test system: SF-268
SF-295 = test system: SF-295
SF-539 = test system: SF-539
SK-MEL-28 = test system: SK-MEL-28
SK-MEL-2 = test system: SK-MEL-2
SK-MEL-5 = test system: SK-MEL-5
SK-OV-3 = test system: SK-OV-3
SN12C = test system: SN12C
SNB-19 = test system: SNB-19
SNB-75 = test system: SNB-75
SNB-78 = test system: SNB-78
SW-620 = test system: SW-620
U-251 = test system: U-251
UACC-257 = test system: UACC-257
UACC-62 = test system: UACC-62
UO-31 = test system: UO-31
XF498 = test system: XF498
786-0 = test system: 786-0
ACHN = test system: ACHN
LXFL 529 = test system: LXFL 529
M14 = test system: M14
TK-10 = test system: TK-10
DMS-114 = test system: DMS-114
SR = test system: SR

For COc1cc2c(cc1Oc1ccc(OC)c3c1CC1c4c(cc(OC)c(OC)c4-3)CCN1C)CC1c3c(cc(OC)c(OC)c3-2)CCN1C (configuration not stated), the GI50 (A498) was 2.77 µM (inactive), the GI50 (A549) was 11.9 µM (inactive) and the GI50 (CAKI-1) was 2.1 µM (inactive). For the same compound, the GI50 (CCRF-CEM) was 2.45 µM (inactive), the GI50 (COLO 205) was 1.48 µM (inactive) and the GI50 (DLD-1) was 2.23 µM (inactive). For the same compound, the GI50 (DMS-273) was 1.02 µM (active), the GI50 (EKVX) was 3.18 µM (inactive) and the GI50 (HCC 2998) was 2.41 µM (inactive). For the same compound, the GI50 (HCT-116) was 1.77 µM (inactive), the GI50 (HCT-15) was 2.02 µM and the GI50 (HL-60) was 0.968 µM (active). For the same compound, the GI50 (HOP-18) was 14 µM (inactive), the GI50 (HOP-62) was 17.1 µM (inactive) and the GI50 (HOP-92) was 2.34 µM (inactive). The GI50 (HT-29) was 0.35 µM (active), the GI50 (IGROV-1) was 3.86 µM (inactive) and the GI50 (K562) was 1.39 µM (inactive). The GI50 (KM-20L2) was 0.957 µM (active), the GI50 (KM12) was 2.35 µM (inactive) and the GI50 (LOX IMVI) was 0.234 µM (active). For the same compound, the GI50 (M19-MEL) was 1.74 µM (inactive), the GI50 (MCF7) was 3.08 µM (inactive) and the GI50 (MOLT-4) was 1.25 µM (inactive). The GI50 (Malme-3M) was 1.85 µM (inactive), the GI50 (NCI-H226) was 1.53 µM (inactive) and the GI50 (NCI-H23) was 10.7 µM (inactive). For the same compound, the GI50 (NCI-H460) was 1.7 µM (inactive), the GI50 (NCI-H522) was 2.09 µM (inactive) and the GI50 (NCI/ADR-RES) was 4.51 µM (inactive). The GI50 (OVCAR-3) was 4.95 µM (inactive), the GI50 (OVCAR-4) was 2.74 µM (inactive) and the GI50 (OVCAR-5) was 6.05 µM (inactive). For the same compound, the GI50 (OVCAR-8) was 5.3 µM (inactive), the GI50 (RPMI-8226) was 0.221 µM (active) and the GI50 (RXF 393) was 1.52 µM (inactive). For the same compound, the GI50 (SF-268) was 2.33 µM (inactive), the GI50 (SF-295) was 2.54 µM (inactive) and the GI50 (SF-539) was 1.72 µM (inactive). For the same compound, the GI50 (SK-MEL-28) was 1.82 µM (inactive), the GI50 (SK-MEL-2) was 1.74 µM (inactive) and the GI50 (SK-MEL-5) was 1.64 µM (inactive). The GI50 (SK-OV-3) was 17.8 µM (inactive), the GI50 (SN12C) was 6.59 µM (inactive) and the GI50 (SNB-19) was 5.69 µM (inactive). For the same compound, the GI50 (SNB-75) was 2.26 µM (inactive), the GI50 (SNB-78) was 7.01 µM (inactive) and the GI50 (SW-620) was 1.95 µM (inactive). The GI50 (U-251) was 1.79 µM (inactive), the GI50 (UACC-257) was 1.65 µM (inactive) and the GI50 (UACC-62) was 1.97 µM (inactive). For the same compound, the GI50 (UO-31) was 3.88 µM (inactive) and the GI50 (XF498) was 1.98 µM (inactive).
CO/N=C(/C(=O)Nc1c[n+](CC(=O)[O-])cs1)c1csc(N)n1 was tested, and the GI50 (786-0) was > 100 µM (inactive), the GI50 (A498) was > 100 µM (inactive) and the GI50 (A549) was > 100 µM (inactive). For the same compound, the GI50 (ACHN) was > 100 µM (inactive), the GI50 (CAKI-1) was > 100 µM (inactive) and the GI50 (CCRF-CEM) was > 100 µM (inactive). For the same compound, the GI50 (COLO 205) was > 100 µM (inactive), the GI50 (DLD-1) was > 100 µM (inactive) and the GI50 (DMS-273) was > 100 µM (inactive). For the same compound, the GI50 (EKVX) was > 100 µM (inactive), the GI50 (HCC 2998) was > 100 µM (inactive) and the GI50 (HCT-116) was > 100 µM (inactive). For the same compound, the GI50 (HCT-15) was greater than 100 µM, the GI50 (HL-60) was > 100 µM (inactive) and the GI50 (HOP-18) was > 100 µM (inactive). For the same compound, the GI50 (HOP-92) was > 100 µM (inactive), the GI50 (HT-29) was > 100 µM (inactive) and the GI50 (IGROV-1) was > 100 µM (inactive). The GI50 (K562) was > 100 µM (inactive), the GI50 (KM-20L2) was > 100 µM (inactive) and the GI50 (KM12) was > 100 µM (inactive). The GI50 (LOX IMVI) was > 100 µM (inactive), the GI50 (LXFL 529) was > 100 µM (inactive) and the GI50 (M14) was > 100 µM (inactive). The GI50 (MOLT-4) was > 100 µM (inactive), the GI50 (Malme-3M) was > 100 µM (inactive) and the GI50 (NCI-H226) was > 100 µM (inactive). The GI50 (NCI-H23) was > 100 µM (inactive), the GI50 (NCI-H460) was > 100 µM (inactive) and the GI50 (NCI-H522) was > 100 µM (inactive). For the same compound, the GI50 (OVCAR-3) was > 100 µM (inactive), the GI50 (OVCAR-5) was > 100 µM (inactive) and the GI50 (OVCAR-8) was > 100 µM (inactive). For the same compound, the GI50 (RPMI-8226) was > 100 µM (inactive), the GI50 (SF-268) was > 100 µM (inactive) and the GI50 (SF-295) was > 100 µM (inactive). For the same compound, the GI50 (SF-539) was > 100 µM (inactive), the GI50 (SK-MEL-2) was > 100 µM (inactive) and the GI50 (SK-MEL-5) was > 100 µM (inactive). For the same compound, the GI50 (SK-OV-3) was > 100 µM (inactive), the GI50 (SN12C) was > 100 µM (inactive) and the GI50 (SNB-19) was > 100 µM (inactive). The GI50 (SNB-78) was > 100 µM (inactive), the GI50 (SW-620) was > 100 µM (inactive) and the GI50 (TK-10) was > 100 µM (inactive). The GI50 (U-251) was > 100 µM (inactive), the GI50 (UACC-257) was > 100 µM (inactive) and the GI50 (UACC-62) was > 100 µM (inactive). The GI50 (UO-31) was > 100 µM (inactive) and the GI50 (XF498) was > 100 µM (inactive).
For N#CC(C#N)=C(N)/C(C#N)=C\c1ccnc2ccccc12, the GI50 (786-0) was 18.9 µM (inactive), the GI50 (A549) was > 100 µM (inactive) and the GI50 (ACHN) was 40.6 µM (inactive). For the same compound, the GI50 (CAKI-1) was 23.6 µM (inactive), the GI50 (CCRF-CEM) was 3.21 µM (inactive) and the GI50 (COLO 205) was > 100 µM (inactive). The GI50 (DLD-1) was 5.71 µM (inactive), the GI50 (DMS-114) was 16.8 µM (inactive) and the GI50 (DMS-273) was 17.3 µM (inactive). The GI50 (HCC 2998) was 37 µM (inactive), the GI50 (HCT-116) was 0.962 µM (active) and the GI50 (HL-60) was 2.01 µM (inactive). For the same compound, the GI50 (HOP-18) was > 100 µM (inactive), the GI50 (HOP-62) was 23.9 µM (inactive) and the GI50 (HOP-92) was 23 µM (inactive). The GI50 (HT-29) was 24.8 µM (inactive), the GI50 (IGROV-1) was 22.1 µM (inactive) and the GI50 (K562) was 4.24 µM (inactive). The GI50 (KM12) was 25.7 µM (inactive), the GI50 (LXFL 529) was 17.2 µM (inactive) and the GI50 (M14) was 23 µM (inactive). The GI50 (M19-MEL) was 19 µM (inactive), the GI50 (MOLT-4) was 15.8 µM (inactive) and the GI50 (Malme-3M) was 24.8 µM (inactive). The GI50 (NCI-H23) was 19.9 µM (inactive), the GI50 (NCI-H460) was 39.3 µM (inactive) and the GI50 (NCI-H522) was 30 µM (inactive). For the same compound, the GI50 (OVCAR-3) was 31.3 µM (inactive), the GI50 (OVCAR-4) was 72.6 µM (inactive) and the GI50 (OVCAR-5) was > 100 µM (inactive). For the same compound, the GI50 (OVCAR-8) was 17.3 µM (inactive), the GI50 (RXF 393) was 18.6 µM (inactive) and the GI50 (SF-268) was 18.5 µM (inactive). For the same compound, the GI50 (SF-295) was 28.2 µM (inactive), the GI50 (SF-539) was 15.1 µM (inactive) and the GI50 (SK-MEL-28) was 20.2 µM (inactive). For the same compound, the GI50 (SK-MEL-5) was 14.6 µM (inactive), the GI50 (SN12C) was 18.8 µM (inactive) and the GI50 (SNB-19) was 31.8 µM (inactive). For the same compound, the GI50 (SNB-75) was 31.4 µM (inactive), the GI50 (SNB-78) was 27.1 µM (inactive) and the GI50 (SR) was 16.4 µM (inactive). For the same compound, the GI50 (SW-620) was 3.49 µM (inactive), the GI50 (TK-10) was 35.2 µM (inactive) and the GI50 (U-251) was 20 µM (inactive). The GI50 (UACC-257) was 24.3 µM (inactive), the GI50 (UACC-62) was 18.9 µM (inactive) and the GI50 (UO-31) was 18.2 µM (inactive). The GI50 (XF498) was 30.1 µM (inactive).
